Data published in PMC4877006, “From Binding-Induced Dynamic Effects in SH3 Structures to Evolutionary Conserved Sectors” (PLoS Computational Biology, 2016).

Tests used:
Parameters in all cases: species or system chicken
[1] = target: T1, c-Src H59R (SH3 domain) (Gallus gallus, UniProt P00523, H122R/Q128R); assay: ITC binding of peptide RLP2 to c-Src SH3 H59R; conditions: ITC, 25 °C
T1 construct: The plasmid pET15b containing the chicken c-Src-SH3 domain gene; made in house
Protocol: (§1) Differential Scanning Calorimetry (DSC) was used to evaluate the effect of the mutation on the conformational equilibrium and stability of the protein. Isothermal Titration Calorimetry (ITC) measured the binding energetics of all mutants to the RLP2 ligand at 25°C. The results for the 15 mutants studied are summarized in Figs 1D, S1 and S2, as well as S3 and S4 Tables.
(§2) The plasmid pET15b containing the chicken c-Src-SH3 domain gene was a generous gift from Dr. E. Freire (Johns Hopkins University). The genes encoding for the c-Src-SH3 mutants were obtained by site directed mutagenesis using the QuickChange Site-Directed-Mutagenesis Kit (Stratagene) taking the WT c-Src-SH3 plasmid as template or purchased from Top Gene Technologies, Canada. WT and mutants of c-Src-SH3 domain were expressed and purified as previously described for the wild type protein [68]. The peptide RLP2 (Ac-RALPPLPRY-NH2) was bought from Peptide 2.0 (Piscataway, USA) and JPT (Berlin, Germany) with a purity > 95%. Protein concentration was determined by absorbance at 280 nm using an extinction coefficient of 16500 M^-1·cm^-1. Peptide concentration was determined by absorbance at 274 nm using an extinction coefficient of 1400 M^-1·cm^-1.
(§3) Isothermal titration calorimetry was performed using a high-precision VP titration calorimetric system (Microcal Inc., Northampton, MA) as previously described. […] Titrations were made using a profile of injection volumes from 3 μL to 20 μL to define the titration curve more clearly. The heat produced by the binding reaction between the Src-SH3 domain and the peptide ligand was calculated as the difference between the heat of reaction and the corresponding heat of dilution, as obtained from independent titrations of the peptide ligand into the buffer. The resulting binding isotherms were analyzed by non-linear least-square fittings of the experimental data to a model corresponding to a single set of identical sites, as described before.
(§4) Supplementary file pcbi.1004938.s008.doc: S3 Table Analysis of Src SH3 binding affinities through ITC. Thermodynamic binding affinity to peptide RLP2. A * indicates experiment made by fluorescence titration only. (DOC) Click here for additional data file.

[2] = tested on: c-Src S26A (SH3 domain); assay: ITC binding of peptide RLP2 to c-Src SH3 S26A; conditions: 25 °C
Protocol: as §1, §2, §3, §4

[3] = target: T2, c-Src R73K (SH3 domain) (Gallus gallus, UniProt P00523, Q128K); assay: ITC binding of peptide RLP2 to c-Src SH3 R73K; conditions: 25 °C
T2 construct: The plasmid pET15b containing the chicken c-Src-SH3 domain gene; made in house
Protocol: as §1, §2, §3, §4

[4] = tested on: c-Src F18L (SH3 domain); assay: ITC binding of peptide RLP2 to c-Src SH3 F18L; conditions: 25 °C, binding of RLP2, F18L relative to wt
Protocol: as §1, §2, §3, §4

[5] = target: T3, c-Src F18L (SH3 domain) (Gallus gallus, UniProt P00523, F86L/Q128R); assay: ITC binding of peptide RLP2 to c-Src SH3 F18L; conditions: ITC, 25 °C
T3 construct: The plasmid pET15b containing the chicken c-Src-SH3 domain gene; made in house
Protocol: as §1, §2, §3, §4

[6] = target: T4, c-Src N45S (SH3 domain) (Gallus gallus, UniProt P00523, N113S); assay: ITC binding of peptide RLP2 to c-Src SH3 N45S; conditions: 25 °C
T4 construct: The plasmid pET15b containing the chicken c-Src-SH3 domain gene; made in house
Protocol: as §1, §2, §3, §4

[7] = target: T5, c-Src F18W (SH3 domain) (Gallus gallus, UniProt P00523, F86W); assay: ITC binding of peptide RLP2 to c-Src SH3 F18W; conditions: 25 °C
T5 construct: The plasmid pET15b containing the chicken c-Src-SH3 domain gene; made in house
Protocol: as §1, §2, §3, §4

[8] = target: T6, c-Src L40I (SH3 domain) (Gallus gallus, UniProt P00523, L108I); assay: ITC binding of peptide RLP2 to c-Src SH3 L40I; conditions: 25 °C
T6 construct: The plasmid pET15b containing the chicken c-Src-SH3 domain gene; made in house
Protocol: as §1, §2, §3, §4

[9] = target: T7, c-Src L32V (SH3 domain) (Gallus gallus, UniProt P00523, L100V/Q128R); assay: Fluorescence titration binding of peptide RLP2 to c-Src SH3 L32V; conditions: fluorescence titration only, 25 °C
T7 construct: The plasmid pET15b containing the chicken c-Src-SH3 domain gene; made in house
Text: as §2, §4

[10] = binding of RLP2, S26A relative to wt
[11] = binding of RLP2, R73K relative to wt
[12] = binding of RLP2, N45S relative to wt
[13] = binding of RLP2, F18W relative to wt
[14] = binding of RLP2, L40I relative to wt

∆Gb (25 ºC) ([1]; binding of RLP2, H59R): -6.76 ± 0.01 kcal/mol
∆Hb (25 ºC) ([1]; binding of RLP2, H59R): -14.3 ± 0.2 kcal/mol
Kd ([1]; RLP2 about 2 mM titrated into SH3 (50-122 μM), H59R, read-out: Kd (25 ºC)): 11 ± 0.2 µM
∆∆Gb (25 ºC) [2, 10]: 0.18 ± 0.06 kcal/mol
∆∆Hb (25 ºC) [2, 10]: 0.4 ± 0.5 kcal/mol
∆Gb (25 ºC) ([2]; ITC, binding of RLP2, S26A): -6.45 ± 0.05 kcal/mol
∆Hb (25 ºC) ([2]; ITC, binding of RLP2, S26A): -13.8 ± 0.5 kcal/mol
Kd ([2]; ITC, RLP2 about 2 mM titrated into SH3 (50-122 μM), S26A (control), read-out: Kd (25 ºC)): 18.8 ± 1.4 µM
∆∆Gb (25 ºC) [3, 11]: -0.12 ± 0.04 kcal/mol
∆∆Hb (25 ºC) [3, 11]: 0.3 ± 0.2 kcal/mol
∆Gb (25 ºC) ([3]; ITC, binding of RLP2, R73K): -6.75 ± 0.02 kcal/mol
∆Hb (25 ºC) ([3]; ITC, binding of RLP2, R73K): -13.9 ± 0.1 kcal/mol
Kd ([3]; ITC, RLP2 about 2 mM titrated into SH3 (50-122 μM), R73K (control), read-out: Kd (25 ºC)): 11.3 ± 0.4 µM
∆∆Gb (25 ºC) [4]: -0.01 ± 0.03 kcal/mol
∆∆Hb (25 ºC) [4]: -0.3 ± 0.2 kcal/mol
∆Gb (25 ºC) ([5]; binding of RLP2, F18L): -6.64 ± 0.01 kcal/mol
∆Hb (25 ºC) ([5]; binding of RLP2, F18L): -14.5 ± 0.1 kcal/mol
Kd ([5]; RLP2 about 2 mM titrated into SH3 (50-122 μM), F18L, read-out: Kd (25 ºC)): 13.5 ± 0.3 µM
∆∆Gb (25 ºC) [6, 12]: 0.19 ± 0.04 kcal/mol
∆∆Hb (25 ºC) [6, 12]: 0.1 ± 0.3 kcal/mol
∆Gb (25 ºC) ([6]; ITC, binding of RLP2, N45S): -6.44 ± 0.02 kcal/mol
∆Hb (25 ºC) ([6]; ITC, binding of RLP2, N45S): -14.1 ± 0.2 kcal/mol
Kd ([6]; ITC, RLP2 about 2 mM titrated into SH3 (50-122 μM), N45S, read-out: Kd (25 ºC)): 19 ± 0.6 µM
∆∆Gb (25 ºC) [7, 13]: 0.23 ± 0.03 kcal/mol
∆∆Hb (25 ºC) [7, 13]: 1.2 ± 0.2 kcal/mol
∆Gb (25 ºC) ([7]; ITC, binding of RLP2, F18W): -6.40 ± 0.01 kcal/mol
∆Hb (25 ºC) ([7]; ITC, binding of RLP2, F18W): -13.0 ± 0.1 kcal/mol
Kd ([7]; ITC, RLP2 about 2 mM titrated into SH3 (50-122 μM), F18W, read-out: Kd (25 ºC)): 20.2 ± 0.3 µM
∆∆Gb (25 ºC) [8, 14]: 0.24 ± 0.04 kcal/mol
∆∆Hb (25 ºC) [8, 14]: 0.4 ± 0.4 kcal/mol
∆Gb (25 ºC) ([8]; ITC, binding of RLP2, L40I): -6.39 ± 0.02 kcal/mol
∆Hb (25 ºC) ([8]; ITC, binding of RLP2, L40I): -13.8 ± 0.3 kcal/mol
Kd ([8]; ITC, RLP2 about 2 mM titrated into SH3 (50-122 μM), L40I, read-out: Kd (25 ºC)): 20.6 ± 0.6 µM
∆∆Gb (25 ºC) ([9]; L32V relative to wt): 1.76 ± 0.07 kcal/mol
∆Gb (25 ºC) ([9]; binding of RLP2, L32V): -4.87 ± 0.06 kcal/mol
Kd ([9]; L32V, read-out: Kd (25 ºC)): 269 ± 29 µM
Substance: Ac-RALPPLPRY-NH2 [RLP2, Ac-RALPPLPRY-NH2]
